What was measured:
Phakopsora Pachyrhizi = assay: Fungicidal activity against Phakopsora pachyrhizi / soybean / leaf disc preventative (Asian soybean rust); format: in vivo; conditions: foliar, 200 ppm in the applied formulation, soybean leaf disks, compared to untreated control leaf disks, read-out: disease control
Experimental: Leaf disks or leaf segments of various plant species are cut from plants grown in a greenhouse. The cut leaf disks or segments are placed in multiwell plates (24-well format) onto water agar. The leaf disks are sprayed with a test solution before (preventative) or after (curative) inoculation. Compounds to be tested are prepared as DMSO solutions (max. 10 mg/ml) which are diluted to the appropriate concentration with 0.025% Tween20 just before spraying. The inoculated leaf disks or segments are incubated under defined conditions (temperature, relative humidity, light, etc.) according to the respective test system. A single evaluation of disease level is carried out 3 to 14 days after inoculation, depending on the pathosystem. Percent disease control relative to the untreated check leaf disks or segments is then calculated.
Fungicidal Activity Against Phakopsora Pachyrhizi Soybean/Leaf Disc Preventative (Asian Soybean Rust)
Soybean leaf disks are placed on water agar in multiwell plates (24-well format) and sprayed with the formulated test compound diluted in water. One day after application leaf discs are inoculated by spraying a spore suspension on the lower leaf surface. After an incubation period in a climate cabinet of 24-36 hours in darkness at 20° C. and 75% rh leaf disc are kept at 20° C. with 12 h light/day and 75% rh. The activity of a compound is assessed as percent disease control compared to untreated when an appropriate level of disease damage appears in untreated check leaf disks (12 to 14 days after application).
The following compounds at 200 ppm in the applied formulation give at least 80% disease control in this test when compared to untreated control leaf disks under the same conditions, which show extensive disease development.

[1] = test system: Glomerella lagenarium (Colletotrichum lagenarium); assay: Fungicidal activity against Glomerella lagenarium (Colletotrichum lagenarium) liquid culture / cucumber / preventative (anthracnose); format: cell-based; conditions: Colletotrichum orbiculare; 20 ppm in the applied formulation; liquid culture (PDB), growth inhibition measured photometrically after 3 to 4 days; compared to untreated control; read-out: disease control
Summary of the method: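 Percent activity against the untreated check was derived from photometric growth measurements made 2 to 7 days after conidia in potato dextrose broth were combined with compound at 20 ppm. Cultures were kept dark at 24 °C and 96% humidity.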

CC(C)(C)CC(=O)N(Cc1ccc(-c2noc(C(F)(F)F)n2)cc1)CC1CC1 [Compound 1.224, N-(cyclopropylmethyl)-3,3-dimethyl-N-[[4-[5-(trifluoromethyl)-1,2,4-oxadiazol-3-yl]phenyl]methyl]-butanamide]
pest or weed control at 200 ppm (Phakopsora Pachyrhizi): ≥ 80% | inhibition of growth at 20 ppm [1]: ≥ 80%

O=C(C1CC1)N(Cc1ccc(-c2noc(C(F)(F)F)n2)cc1)CC1CC1 [Compound 1.246, N-(cyclopropylmethyl)-N-[[4-[5-(trifluoromethyl)-1,2,4-oxadiazol-3-yl]phenyl]methyl]-cyclopropane-carboxamide]
pest or weed control at 200 ppm (Phakopsora Pachyrhizi): ≥ 80% | inhibition of growth at 20 ppm [1]: ≥ 80%

CCON(Cc1ccc(-c2noc(C(F)(F)F)n2)cc1)C(=O)c1ccccc1Cl [Compound 1.616, 2-chloro-N-ethoxy-N-[[4-[5-(trifluoromethyl)-1,2,4-oxadiazol-3-yl]phenyl]methyl]-benzamide]
pest or weed control at 200 ppm (Phakopsora Pachyrhizi): ≥ 80% | inhibition of growth at 20 ppm [1]: ≥ 80%

CCON(Cc1ccc(-c2noc(C(F)(F)F)n2)cc1)C(=O)CC(F)(F)F [Compound 1.630, N-ethoxy-3,3,3-trifluoro-N-[[4-[5-(trifluoromethyl)-1,2,4-oxadiazol-3-yl]phenyl]methyl]-propanamide]
pest or weed control at 200 ppm (Phakopsora Pachyrhizi): ≥ 80% | inhibition of growth at 20 ppm [1]: ≥ 80%

CCON(Cc1ccc(-c2noc(C(F)(F)F)n2)cc1)C(=O)CC1CC1 [Compound 1.632, 2-cyclopropyl-N-ethoxy-N-[[4-[5-(trifluoromethyl)-1,2,4-oxadiazol-3-yl]phenyl]methyl]-acetamide]
pest or weed control at 200 ppm (Phakopsora Pachyrhizi): ≥ 80% | inhibition of growth at 20 ppm [1]: ≥ 80%

CCCCON(Cc1ccc(-c2noc(C(F)(F)F)n2)cc1)C(=O)C1CC1(F)F (stereo not shown) [Compound 1.634, N-butoxy-2,2-difluoro-N-[[4-[5-(trifluoromethyl)-1,2,4-oxadiazol-3-yl]phenyl]methyl]-cyclopropane-carboxamide]
pest or weed control at 200 ppm (Phakopsora Pachyrhizi): ≥ 80% | inhibition of growth at 20 ppm [1]: ≥ 80%

CCCCON(Cc1ccc(-c2noc(C(F)(F)F)n2)cc1)C(=O)CCOC [Compound 1.637, N-butoxy-3-methoxy-N-[[4-[5-(trifluoromethyl)-1,2,4-oxadiazol-3-yl]phenyl]methyl]-propanamide]
pest or weed control at 200 ppm (Phakopsora Pachyrhizi): ≥ 80% | inhibition of growth at 20 ppm [1]: ≥ 80%

CCCCON(Cc1ccc(-c2noc(C(F)(F)F)n2)cc1)C(=O)C1(C)CC1 [Compound 1.639, N-butoxy-1-methyl-N-[[4-[5-(trifluoromethyl)-1,2,4-oxadiazol-3-yl]phenyl]methyl]-cyclopropane-carboxamide]
pest or weed control at 200 ppm (Phakopsora Pachyrhizi): ≥ 80% | inhibition of growth at 20 ppm [1]: ≥ 80%

CCCCON(Cc1ccc(-c2noc(C(F)(F)F)n2)cc1)C(=O)C1(C)COC1 [Compound 1.641, N-butoxy-3-methyl-N-[[4-[5-(trifluoromethyl)-1,2,4-oxadiazol-3-yl]phenyl]methyl]-oxetane-3-carboxamide]
pest or weed control at 200 ppm (Phakopsora Pachyrhizi): ≥ 80% | inhibition of growth at 20 ppm [1]: ≥ 80%

CCCCON(Cc1ccc(-c2noc(C(F)(F)F)n2)cc1)C(=O)C(CC)COC (stereo not shown) [Compound 1.642, N-butoxy-2-(methoxymethyl)-N-[[4-[5-(trifluoromethyl)-1,2,4-oxadiazol-3-yl]phenyl]methyl]-butanamide]
pest or weed control at 200 ppm (Phakopsora Pachyrhizi): ≥ 80% | inhibition of growth at 20 ppm [1]: ≥ 80%

CCCCON(Cc1ccc(-c2noc(C(F)(F)F)n2)cc1)C(=O)CCCOC [Compound 1.643, N-butoxy-4-methoxy-N-[[4-[5-(trifluoromethyl)-1,2,4-oxadiazol-3-yl]phenyl]methyl]-butanamide]
pest or weed control at 200 ppm (Phakopsora Pachyrhizi): ≥ 80% | inhibition of growth at 20 ppm [1]: ≥ 80%

CCCCON(Cc1ccc(-c2noc(C(F)(F)F)n2)cc1)C(=O)C1CCCO1 (stereo not shown) [Compound 1.644, N-butoxy-N-[[4-[5-(trifluoromethyl)-1,2,4-oxadiazol-3-yl]phenyl]methyl]-tetrahydrofuran-2-carboxamide]
pest or weed control at 200 ppm (Phakopsora Pachyrhizi): ≥ 80% | inhibition of growth at 20 ppm [1]: ≥ 80%

CCCCON(Cc1ccc(-c2noc(C(F)(F)F)n2)cc1)C(=O)CC#N [Compound 1.645, N-butoxy-2-cyano-N-[[4-[5-(trifluoromethyl)-1,2,4-oxadiazol-3-yl]phenyl]methyl]-acetamide]
pest or weed control at 200 ppm (Phakopsora Pachyrhizi): ≥ 80% | inhibition of growth at 20 ppm [1]: ≥ 80%

CCCCON(Cc1ccc(-c2noc(C(F)(F)F)n2)cc1)C(=O)C1(C#N)CC1 [Compound 1.646, N-butoxy-1-cyano-N-[[4-[5-(trifluoromethyl)-1,2,4-oxadiazol-3-yl]phenyl]methyl]-cyclopropane-carboxamide]
pest or weed control at 200 ppm (Phakopsora Pachyrhizi): ≥ 80% | inhibition of growth at 20 ppm [1]: ≥ 80%

CCCCON(Cc1ccc(-c2noc(C(F)(F)F)n2)cc1)C(=O)CC(F)(F)F [Compound 1.648, N-butoxy-3,3,3-trifluoro-N-[[4-[5-(trifluoromethyl)-1,2,4-oxadiazol-3-yl]phenyl]methyl]-propanamide]
pest or weed control at 200 ppm (Phakopsora Pachyrhizi): ≥ 80% | inhibition of growth at 20 ppm [1]: ≥ 80%

CCCCON(Cc1ccc(-c2noc(C(F)(F)F)n2)cc1)C(C)=O [Compound 1.649, N-butoxy-N-[[4-[5-(trifluoromethyl)-1,2,4-oxadiazol-3-yl]phenyl]methyl]-acetamide]
pest or weed control at 200 ppm (Phakopsora Pachyrhizi): ≥ 80% | inhibition of growth at 20 ppm [1]: ≥ 80%

CCCN(Cc1ccc(-c2noc(C(F)(F)F)n2)cc1)C(=O)c1ccccc1Cl [Compound 1.653, 2-chloro-N-propyl-N-[[4-[5-(trifiuoromethyl)-1,2,4-oxadiazol-3-yl]phenyl]methyl]-benzamide]
pest or weed control at 200 ppm (Phakopsora Pachyrhizi): ≥ 80% | inhibition of growth at 20 ppm [1]: ≥ 80%

CCCN(Cc1ccc(-c2noc(C(F)(F)F)n2)cc1)C(=O)C1CC1C (stereo not shown) [Compound 1.657, 2-methyl-N-propyl-N-[[4-[5-(trifluoromethyl)-1,2,4-oxadiazol-3-yl]phenyl]methyl]-cyclopropane-carboxamide]
pest or weed control at 200 ppm (Phakopsora Pachyrhizi): ≥ 80% | inhibition of growth at 20 ppm [1]: ≥ 80%

O=C(c1ccccc1Cl)N(Cc1ccc(-c2noc(C(F)(F)F)n2)cc1)CC(F)(F)F [Compound 1.691, 2-chloro-N-(2,2,2-trifluoroethyl)-N-[[4-[5-(trifluoromethyl)-1,2,4-oxadiazol-3-yl]phenyl]methyl]-benzamide]
pest or weed control at 200 ppm (Phakopsora Pachyrhizi): ≥ 80% | inhibition of growth at 20 ppm [1]: ≥ 80%

O=C(C1CCC1)N(Cc1ccc(-c2noc(C(F)(F)F)n2)cc1)CC(F)(F)F [Compound 1.694, N-(2,2,2-trifluoroethyl)-N-[[4-[5-(trifluoromethyl)-1,2,4-oxadiazol-3-yl]phenyl]methyl]-cyclobutane-carboxamide]
pest or weed control at 200 ppm (Phakopsora Pachyrhizi): ≥ 80% | inhibition of growth at 20 ppm [1]: ≥ 80%

CC1CC1C(=O)N(Cc1ccc(-c2noc(C(F)(F)F)n2)cc1)CC(F)(F)F (stereo not shown) [Compound 1.695, 2-methyl-N-(2,2,2-trifluoroethyl)-N-[[4-[5-(trifluoromethyl)-1,2,4-oxadiazol-3-yl]phenyl]methyl]-cyclopropane-carboxamide]
pest or weed control at 200 ppm (Phakopsora Pachyrhizi): ≥ 80% | inhibition of growth at 20 ppm [1]: ≥ 80%

CCC(C)C(=O)N(Cc1ccc(-c2noc(C(F)(F)F)n2)cc1)CC(F)(F)F (stereo not shown) [Compound 1.697, 2-methyl-N-(2,2,2-trifluoroethyl)-N-[[4-[5-(trifluoromethyl)-1,2,4-oxadiazol-3-yl]phenyl]methyl]-butanamide]
pest or weed control at 200 ppm (Phakopsora Pachyrhizi): ≥ 80% | inhibition of growth at 20 ppm [1]: ≥ 80%

CCC(COC)C(=O)N(Cc1ccc(-c2noc(C(F)(F)F)n2)cc1)CC(F)(F)F (stereo not shown) [Compound 1.699, 2-(methoxymethyl)-N-(2,2,2-trifluoroethyl)-N-[[4-[5-(trifluoromethyl)-1,2,4-oxadiazol-3-yl]phenyl]methyl]-butanamide]
pest or weed control at 200 ppm (Phakopsora Pachyrhizi): ≥ 80% | inhibition of growth at 20 ppm [1]: ≥ 80%

COCCCC(=O)N(Cc1ccc(-c2noc(C(F)(F)F)n2)cc1)CC(F)(F)F [Compound 1.700, 4-methoxy-N-(2,2,2-trifluoroethyl)-N-[[4-[5-(trifluoromethyl)-1,2,4-oxadiazol-3-yl]phenyl]methyl]-butanamide]
pest or weed control at 200 ppm (Phakopsora Pachyrhizi): ≥ 80% | inhibition of growth at 20 ppm [1]: ≥ 80%

O=C(CC1CC1)N(Cc1ccc(-c2noc(C(F)(F)F)n2)cc1)CC(F)(F)F [Compound 1.706, 2-cyclopropyl-N-(2,2,2-trifluoroethyl)-N-[[4-[5-(trifluoromethyl)-1,2,4-oxadiazol-3-yl]phenyl]methyl]-acetamide]
pest or weed control at 200 ppm (Phakopsora Pachyrhizi): ≥ 80% | inhibition of growth at 20 ppm [1]: ≥ 80%

N#CC1(C(=O)OCCN(Cc2ccc(-c3noc(C(F)(F)F)n3)cc2)C(=O)C2(C#N)CC2)CC1 [Compound 1.730, 2-[(1-cyanocyclopropane-carbonyl)-[[4-[5-(trifluoromethyl)-1,2,4-oxadiazol-3-yl]phenyl]methyl]-amino]ethyl 1-cyanocyclopropane-carboxylate]
pest or weed control at 200 ppm (Phakopsora Pachyrhizi): ≥ 80% | inhibition of growth at 20 ppm [1]: ≥ 80%
